Active and inactive are the calls of the source. Cut-off read from the data, not from the text of the source, for most assays here: actives have a measured EC50 and inactives only a lower limit.
What was measured:
[1] = NIH-3T3 fibroblast cytotoxicity, dose response, cytotoxicity control, cell-based, fluorescence, Alamar Blue, secondary assay (AID 2327); format: functional;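 note: NIH-3T3 mouse fibroblasts cultured with fluconazole at 8 µg/mL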
[2] = luciferase reporter signal suppression in cells – H4 neuroglioma cells, luminescence, dose response (AID 1990); format: functional, cell-based
[3] = test system: BJ; assay: BJ-TERT fibroblast viability loss – cell-based, RAS-independent, luminescence, dose response (AID 1933); format: functional; details: Homo sapiens
[4] = Luminescence Cell-Based Dose Response HTS to Identify Inhibitors of 5'UTR Stem-Loop Driven Prion Protein mRNA Translation in H4 Neuroglioblastoma Cells. [Related pubchem assays: 1827 (Project Summary), 1813 (Primary HTS)]; format: functional
[5] = alpha-synuclein stem-loop luciferase translation blockers – H4 neuroglioma cells, luminescence, confirmation (AID 1988); format: functional, cell-based
[6] = test system: BJ; assay: cells; format: functional, cell-based; details: Homo sapiens
[7] = fluconazole-exposed Candida albicans growth modulators – fluorescence, retest, confirmation (AID 2467); format: functional, cell-based
[8] = test system: BJ; assay: BJ-TERT-LT-ST fibroblast viability loss – cell-based, RAS-independent, luminescence, dose response (AID 1935); format: functional; details: Homo sapiens;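 note: BJ fibroblasts immortalized with TERT plus LT and ST oncogenes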
[9] = DRD fibroblast viability loss – cell-based, non-viral oncogenic, luminescence, dose response (AID 1934); format: functional; details: Homo sapiens
[10] = test system: INS1; assay: INS-1E survival protection against cytokine death – cell-based, luminescence, retest, dose response (AID 449756); format: functional; details: Rattus norvegicus;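 note: cell death triggered by IL-1 beta plus TNF-alpha plus IFN-gamma mixture; protective hits raise ATP signal compared with cytokine alone wells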
[11] = target: T1, RNA-binding protein pos-1 (Caenorhabditis elegans, UniProt G5EF15); assay: disruptors of C. elegans POS-1 RNA interaction – biochemical, fluorescence polarization, dose response (AID 1964);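 note: purified POS-1 fused to maltose binding protein made in E. coli; potency of compounds blocking POS-1 binding to fluorescent RNA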
T1 sequence (G5EF15 whole entry): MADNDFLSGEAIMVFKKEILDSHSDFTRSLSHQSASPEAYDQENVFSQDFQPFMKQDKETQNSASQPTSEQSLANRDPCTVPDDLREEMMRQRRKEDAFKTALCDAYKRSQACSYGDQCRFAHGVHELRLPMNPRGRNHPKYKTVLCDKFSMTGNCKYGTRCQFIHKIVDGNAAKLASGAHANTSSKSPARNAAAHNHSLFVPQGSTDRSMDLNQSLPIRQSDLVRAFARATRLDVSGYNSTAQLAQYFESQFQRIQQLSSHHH

[12] = target: T2, Zinc finger protein mex-5 (Caenorhabditis elegans, UniProt Q9XUB2); assay: potency of MEX-5 RNA-binding blockers – biochemical, C. elegans, fluorescence polarization, dose response (AID 1960)
T2 sequence (Q9XUB2 whole entry): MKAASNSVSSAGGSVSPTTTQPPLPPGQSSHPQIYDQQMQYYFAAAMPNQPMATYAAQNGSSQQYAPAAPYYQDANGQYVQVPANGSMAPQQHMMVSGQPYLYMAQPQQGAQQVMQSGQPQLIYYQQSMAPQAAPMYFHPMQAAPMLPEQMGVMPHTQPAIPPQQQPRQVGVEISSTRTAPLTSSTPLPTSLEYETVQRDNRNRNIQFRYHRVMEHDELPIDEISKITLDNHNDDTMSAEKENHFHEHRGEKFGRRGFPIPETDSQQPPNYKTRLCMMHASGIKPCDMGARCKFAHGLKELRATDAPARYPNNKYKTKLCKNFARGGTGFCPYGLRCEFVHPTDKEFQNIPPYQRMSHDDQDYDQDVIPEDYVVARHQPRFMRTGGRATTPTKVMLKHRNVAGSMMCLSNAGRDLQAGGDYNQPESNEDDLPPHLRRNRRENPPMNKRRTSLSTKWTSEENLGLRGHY

[13] = target: T3, Polyadenylate-binding protein 1 (Homo sapiens, UniProt P11940); assay: MLLE binding blockers, Cy5 peptide tracer – biochemical, fluorescence polarization, Cy5-PAM2 peptide, secondary, miRNA deadenylation inhibitor project, dose response (AID 602260); format: functional; details: read-out: IC50_Mean
T3 sequence (P11940 whole entry, the tested form may be a part): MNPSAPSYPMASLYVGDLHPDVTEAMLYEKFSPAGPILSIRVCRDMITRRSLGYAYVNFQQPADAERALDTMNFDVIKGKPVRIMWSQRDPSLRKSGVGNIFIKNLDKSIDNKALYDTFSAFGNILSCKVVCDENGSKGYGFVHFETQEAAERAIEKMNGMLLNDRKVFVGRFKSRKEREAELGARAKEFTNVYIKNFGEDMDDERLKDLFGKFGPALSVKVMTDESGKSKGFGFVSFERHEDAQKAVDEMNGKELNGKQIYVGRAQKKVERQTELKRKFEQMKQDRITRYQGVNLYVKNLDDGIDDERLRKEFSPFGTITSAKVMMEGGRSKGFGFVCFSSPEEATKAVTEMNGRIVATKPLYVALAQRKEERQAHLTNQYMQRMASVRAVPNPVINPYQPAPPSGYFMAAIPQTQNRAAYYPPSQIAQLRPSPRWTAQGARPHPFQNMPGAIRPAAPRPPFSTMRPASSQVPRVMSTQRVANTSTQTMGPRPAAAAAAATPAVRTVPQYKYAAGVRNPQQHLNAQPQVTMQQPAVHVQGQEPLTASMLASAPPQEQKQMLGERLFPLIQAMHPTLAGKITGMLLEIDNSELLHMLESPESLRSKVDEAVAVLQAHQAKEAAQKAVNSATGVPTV

[14] = target: T3, Polyadenylate-binding protein 1; assay: MLLE domain peptide-binding blockers, IC50 – biochemical, fluorescence polarization, FITC-PAM2 peptide, dose response (AID 602259); format: functional; details: read-out: IC50_Mean
[15] = cells; format: functional
[16] = target: FAD-linked sulfhydryl oxidase ALR (Homo sapiens, UniProt P55789); assay: ALR-catalysed DTT oxidation blockers – biochemical, H2O2 detection, luminescence, cherry-pick, dose response (AID 493248)
Sequence of FAD-linked sulfhydryl oxidase ALR (P55789 whole entry): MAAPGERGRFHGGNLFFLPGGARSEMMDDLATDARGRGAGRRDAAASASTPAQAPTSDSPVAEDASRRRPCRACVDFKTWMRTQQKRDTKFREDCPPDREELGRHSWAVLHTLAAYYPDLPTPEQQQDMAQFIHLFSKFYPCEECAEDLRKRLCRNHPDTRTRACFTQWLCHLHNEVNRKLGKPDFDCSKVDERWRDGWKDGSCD

[17] = target: T4, Corticotropin-releasing factor receptor 2/Corticotropin-releasing factor-binding protein (Homo sapiens, UniProt P24387+Q13324); assay: activators of CRF receptor 2 with binding protein – uHTS hits, confirmation (AID 602473); format: functional; details: read-out: EC50_Mean
T4 sequence (Q13324 whole entry): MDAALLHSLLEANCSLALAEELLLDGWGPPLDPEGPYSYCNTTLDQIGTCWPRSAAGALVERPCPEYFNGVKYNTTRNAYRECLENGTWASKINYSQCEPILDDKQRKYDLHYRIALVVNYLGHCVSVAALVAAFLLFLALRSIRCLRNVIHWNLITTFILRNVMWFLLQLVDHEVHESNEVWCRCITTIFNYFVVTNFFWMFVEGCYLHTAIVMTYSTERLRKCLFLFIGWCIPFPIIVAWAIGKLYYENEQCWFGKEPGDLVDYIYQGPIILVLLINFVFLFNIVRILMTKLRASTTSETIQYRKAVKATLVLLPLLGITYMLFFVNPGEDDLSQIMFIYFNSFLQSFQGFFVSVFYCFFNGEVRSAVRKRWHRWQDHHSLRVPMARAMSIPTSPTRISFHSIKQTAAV
T4 sequence (P24387 whole entry): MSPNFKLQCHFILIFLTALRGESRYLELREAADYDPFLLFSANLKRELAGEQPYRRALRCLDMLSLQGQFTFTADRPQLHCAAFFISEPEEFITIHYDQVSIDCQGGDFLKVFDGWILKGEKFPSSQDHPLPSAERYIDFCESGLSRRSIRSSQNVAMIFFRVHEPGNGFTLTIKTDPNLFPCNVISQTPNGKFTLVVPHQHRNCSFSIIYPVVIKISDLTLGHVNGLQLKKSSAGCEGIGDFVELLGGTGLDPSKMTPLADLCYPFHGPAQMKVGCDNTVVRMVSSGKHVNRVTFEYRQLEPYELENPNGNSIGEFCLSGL

[18] = target: Paired box protein Pax-8 (Homo sapiens, UniProt Q06710); assay: PAX8 transcriptional activity inhibition in RMG-I – RMG-I cells, luciferase, cherry-pick, dose response (AID 687027); format: functional, cell-based;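 note: luciferase reporter driven by Pax8 target thyroperoxidase promoter measured by SteadyGlo luminescence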
Sequence of Paired box protein Pax-8 (Q06710 whole entry): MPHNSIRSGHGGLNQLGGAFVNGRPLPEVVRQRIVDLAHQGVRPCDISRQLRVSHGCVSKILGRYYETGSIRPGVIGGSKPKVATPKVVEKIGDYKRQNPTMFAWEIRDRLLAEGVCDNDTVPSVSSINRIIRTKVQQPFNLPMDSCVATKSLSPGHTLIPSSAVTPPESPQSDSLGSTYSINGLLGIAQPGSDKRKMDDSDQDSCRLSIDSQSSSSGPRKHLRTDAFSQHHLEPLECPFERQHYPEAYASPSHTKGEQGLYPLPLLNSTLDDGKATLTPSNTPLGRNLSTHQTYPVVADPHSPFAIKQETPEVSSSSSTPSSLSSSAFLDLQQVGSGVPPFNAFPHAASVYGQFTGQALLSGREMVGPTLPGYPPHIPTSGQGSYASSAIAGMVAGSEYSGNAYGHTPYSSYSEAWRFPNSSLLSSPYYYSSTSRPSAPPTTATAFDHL

[19] = target: T5, Leucine aminopeptidase (Plasmodium falciparum 3D7, UniProt Q8IL11); assay: P. falciparum M17LAP inhibitors, primary screen, biochemical, fluorogenic H-Leu-NHMec substrate, 1536-well (AID 1619); format: functional
T5 sequence (Q8IL11 whole entry): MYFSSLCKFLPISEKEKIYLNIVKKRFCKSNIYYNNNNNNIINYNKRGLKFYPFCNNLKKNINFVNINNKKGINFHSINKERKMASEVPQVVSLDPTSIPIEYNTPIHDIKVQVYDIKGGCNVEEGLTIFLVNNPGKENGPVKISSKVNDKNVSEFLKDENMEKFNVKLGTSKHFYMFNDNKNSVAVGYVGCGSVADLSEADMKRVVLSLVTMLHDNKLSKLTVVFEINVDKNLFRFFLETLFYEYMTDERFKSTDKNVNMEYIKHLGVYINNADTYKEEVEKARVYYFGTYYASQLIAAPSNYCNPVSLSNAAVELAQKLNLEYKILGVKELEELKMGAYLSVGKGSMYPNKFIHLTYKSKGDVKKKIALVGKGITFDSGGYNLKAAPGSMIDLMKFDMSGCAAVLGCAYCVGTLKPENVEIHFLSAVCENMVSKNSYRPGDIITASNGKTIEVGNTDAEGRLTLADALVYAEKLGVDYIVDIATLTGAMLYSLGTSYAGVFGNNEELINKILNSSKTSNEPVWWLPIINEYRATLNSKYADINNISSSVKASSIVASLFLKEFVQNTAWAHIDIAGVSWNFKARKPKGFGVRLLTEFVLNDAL

[20] = target: T6, Rac GTPase-activating protein 1 (Homo sapiens, UniProt Q9H0H5); assay: blockers of MgcRacGAP-driven Rac1 GTP hydrolysis – biochemical, ADP Hunter fluorescence, primary and confirmatory, confirmation (AID 624330); format: functional
T6 sequence (Q9H0H5 whole entry): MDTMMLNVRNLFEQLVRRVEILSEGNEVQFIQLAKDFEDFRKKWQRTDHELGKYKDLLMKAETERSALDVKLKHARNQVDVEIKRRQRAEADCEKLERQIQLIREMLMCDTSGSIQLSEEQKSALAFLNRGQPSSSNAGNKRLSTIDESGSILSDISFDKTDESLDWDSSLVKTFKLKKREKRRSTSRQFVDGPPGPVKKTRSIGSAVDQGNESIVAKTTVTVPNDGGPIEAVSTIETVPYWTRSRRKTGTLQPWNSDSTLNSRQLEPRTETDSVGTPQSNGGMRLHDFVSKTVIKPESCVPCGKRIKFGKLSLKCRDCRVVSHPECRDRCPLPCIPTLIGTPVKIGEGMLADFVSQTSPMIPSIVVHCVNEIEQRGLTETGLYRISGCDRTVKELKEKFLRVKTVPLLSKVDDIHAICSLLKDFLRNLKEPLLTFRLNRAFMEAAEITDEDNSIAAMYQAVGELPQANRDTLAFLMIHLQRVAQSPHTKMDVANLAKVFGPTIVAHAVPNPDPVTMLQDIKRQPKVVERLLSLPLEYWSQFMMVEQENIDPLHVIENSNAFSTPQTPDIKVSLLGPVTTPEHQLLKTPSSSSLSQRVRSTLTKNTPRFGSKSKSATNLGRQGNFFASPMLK

[21] = cells; format: functional, cell-based
[22] = cells; format: functional, cell-based; remark: listed apart in the source

## [O-]c1ccccc1-[n+]1c(-c2ccccc2)cc(-c2ccccc2)cc1-c1ccccc1
[1]
  EC50: > 160 µM (inconclusive)
[2]
  EC50: > 120 µM (not active)
[3]
  EC50: 11.7 µM (active)
[4]
  EC50: > 120 µM (not active)
[5]
  EC50: > 120 µM (not active)
[6]
  EC50: 14.2 µM (active)
[7]
  EC50: 0.85 µM (active)
[8]
  EC50: > 150 µM (inconclusive)
[9]
  EC50: 11.4 µM (active)
[10]
  AC50: 6.35 µM (active)

## COc1ccc(C2C(C(=O)c3ccco3)=C(O)C(=O)N2c2nnc(C)s2)cc1OC (stereo not given)
[11]
  EC50: > 300 µM (not active)
[12]
  EC50: 297 µM (active)
[13]
  IC50: > 66 µM (inactive)
[14]
  IC50: 50.4 µM (inactive)

## COC(=O)COc1ccc2cc(-c3ccc(OC)cc3)c(=O)oc2c1
[15]
  IC50: 1.12 µM (active)

## O=C(NCC(c1cccnc1)N1CCN(c2ccccc2)CC1)OCc1ccccc1 (stereo not given)
[16]
  AC50: 6.15 µM (active)

## CN(C)c1ccc(CNC(=O)c2cc(S(=O)(=O)N3CCCC3)cn2C)cc1
[16]
  AC50: 8.78 µM (active)

## O=C(Cc1ccc(Cl)cc1)NC(=S)Nc1ccccc1O
[13]
  IC50: > 66 µM (inactive)
[14]
  IC50: > 66 µM (inactive)
[17]
  EC50: 5.99 µM (active)

## Cn1c(CCN2CCN(c3ccccn3)CC2)nc2cc(NS(=O)(=O)c3ccc(Cl)cc3)ccc21
[18]
  AC50: 8.15 µM (active)

## CC(=O)N1CCN=C1SCc1ccccc1F
[16]
  AC50: 13.9 µM (active)

## CCOC(=O)CSc1nc2c(sc(=S)n2-c2ccccc2)c(=O)[nH]1
[19]
  IC50: 35.6 µM (active)

## O=[N+]([O-])c1c(O)nc(/C=C\c2ccc(O)cc2)nc1O
[16]
  AC50: 4.4 µM (active)
[20]
  IC50: 50.6 µM (active)

## Cc1cc(O)nc(SCC(=O)Nc2ccccc2C#N)c1C#N
[19]
  IC50: 13.9 µM (active)

## Cn1nccc1C(=O)N/N=C/c1c(O)ccc2ccccc12
[3]
  EC50: 1.61 µM (active)
[21]
  EC50: 5.93 µM (active)
[6]
  EC50: 7.69 µM (active)
[22]
  EC50: 38.7 µM (active)
[8]
  EC50: 4.66 µM (active)
[9]
  EC50: 1.59 µM (active)
[10]
  AC50: 0.856 µM (active)

## C[C@@H]1CN([C@@H](C)CO)S(=O)(=O)c2ccc(C#Cc3ccc(F)cc3)cc2O[C@H]1CN(C)C(=O)NC1CCCCC1
[18]
  AC50: 7.93 µM (active)

## CC1=NNC(=O)C1CC(=O)N/N=C(\C)c1cccs1 (stereo not given)
[19]
  IC50: 3.56 µM (active)

From ChEMBL document CHEMBL1201862, “PubChem BioAssay data set” (2004)
